Data published in ChEMBL document CHEMBL1134808, “Evolution of anti-HIV drug candidates. Part 1: From alpha-anilinophenylacetamide (alpha-APA) to imidoyl thiourea (ITU)” (Bioorg Med Chem Lett, 2001).
Structures can show the parent of a compound that is named as a salt.

Assays:
[1] = test system: Human immunodeficiency virus 1; test: Compound potency to achieve protection of MT-4 cells from HIV-1 cytopathicity; format: functional, organism-based, MT4
[2] = test system: MT4; test: Compound was tested for potency to achieve protection of MT-4 cells from LAI strain of HIV-1 virus; format: functional, cell-based; settings: Homo sapiens
[3] = test system: MT4; test: Compound was tested for potency to achieve protection of MT-4 cells from 188L strain of HIV-1 virus; format: functional, cell-based; settings: Homo sapiens
[4] = test system: MT4; test: Compound was tested for potency to achieve protection of MT-4 cells from 190A strain of HIV-1 virus; format: functional, cell-based; settings: Homo sapiens
[5] = test system: MT4; test: Compound was tested for potency to achieve protection of MT-4 cells from 181C strain of HIV-1 virus; format: functional, cell-based; settings: Homo sapiens
[6] = test system: MT4; test: Compound was tested for potency to achieve protection of MT-4 cells from 106A strain of HIV-1 virus; format: functional, cell-based; settings: Homo sapiens
[7] = test system: MT4; test: Compound was tested for potency to achieve protection of MT-4 cells from 101E strain of HIV-1 virus; format: functional, cell-based; settings: Homo sapiens
[8] = test system: MT4; test: Compound was tested for potency to achieve protection of MT-4 cells from 103N strain of HIV-1 virus; format: functional, cell-based; settings: Homo sapiens
[9] = test system: MT4; test: Compound was tested for potency to achieve protection of MT-4 cells from 100I strain of HIV-1 virus; format: functional, cell-based; settings: Homo sapiens
[10] = Human immunodeficiency virus 1, MT4

IC50 [1, 10] [nM] | SMILES | other results
7940 | N#Cc1ccc(NC(=N)NC(=N)Cc2c(Cl)cccc2Cl)cc1 | –
1480 | N#Cc1ccc(NC(=S)NC(=N)C2(c3c(Cl)cccc3Cl)CC2)cc1 | –
214 | C/N=C(/Cc1c(Cl)cccc1Cl)NC(=O)Nc1ccc(C#N)cc1 | –
22900 | N#Cc1ccc(NC(=S)NC(=N)c2c(Cl)cccc2Cl)cc1 | –
6 | N#Cc1ccc(N/C(S)=N/C(=N)Cc2c(F)cccc2F)cc1 | –
692 | N=C(Cc1c(Cl)cccc1Cl)NC(=S)NCc1ccc(Cl)cc1 | –
26 | Cc1ccccc1CC(=N)/N=C(\S)Nc1ccc(C#N)cc1 | –
58900 | CN(/C(S)=N/C(=N)Cc1c(Cl)cccc1Cl)c1ccc(C#N)cc1 | –
> 160000 | NC(=O)C(Nc1ccc(Cl)cc1)c1c(Cl)cccc1Cl (stereo not given) | –
30 | COc1ccccc1CC(=N)/N=C(\S)Nc1ccc(C#N)cc1 | –
68 | N#Cc1ccc(NC(=S)NC(=N)Cc2cccc(Cl)c2)cc1 | –
7 | N#Cc1ccc(NC(=S)NC(=N)Cc2ccc(Cl)cc2Cl)cc1 | –
> 79000 | NC(=O)C(NC(=O)c1ccccc1[N+](=O)[O-])c1c(Cl)cccc1Cl (stereo not given) | –
100 | NC(=O)C(Nc1ccccc1[N+](=O)[O-])c1c(Cl)cccc1Cl (stereo not given) | –
> 320000 | NC(=O)C(NC(=O)Nc1ccccc1[N+](=O)[O-])c1c(Cl)cccc1Cl (stereo not given) | –
123 | N=C(Cc1c(Cl)cccc1Cl)NC(=S)Nc1ccccc1 | –
42700 | N=C(Cc1c(Cl)cccc1Cl)NC(=S)Nc1c(Cl)cc(Cl)cc1Cl | –
158 | CCN/C(Cc1c(Cl)cccc1Cl)=N\C(S)=N\c1ccc(C#N)cc1 | –
15 | N#Cc1ccc(NC(=O)NC(=N)Cc2c(Cl)cccc2Cl)cc1 | –
100000 | N#Cc1ccc(NC(=S)NS(=O)(=O)Cc2c(Cl)cccc2Cl)cc1 | –
631000 | N#Cc1ccc(NC(=S)NC(=O)Cc2c(Cl)cccc2Cl)cc1 | –
> 250000 | NC(=O)C(NCc1ccccc1[N+](=O)[O-])c1c(Cl)cccc1Cl (stereo not given) | –

Continued, compound first:

SMILES | IC50 [1, 10] [nM] | other results
N=C(Cc1c(Cl)cccc1Cl)NC(=S)Nc1ccc(Cl)cc1 | 13 | –
N#Cc1ccc(NC(=S)NC(=N)Cc2c(Cl)cccc2Cl)cc1 | 3 | IC50 [2]: 3 nM; IC50 [3]: 318 nM; IC50 [4]: 2 nM; IC50 [5]: 511 nM; IC50 ([1]; mt4): 2.5 nM; IC50 [6]: 382 nM; IC50 [7]: 19 nM; IC50 [8]: 589 nM; IC50 [9]: 513 nM
CN/C(Cc1c(Cl)cccc1Cl)=N\C(S)=N\c1ccc(C#N)cc1 | 3.9 | –
N#Cc1ccc(NC(=S)NC(=N)Cc2ccccc2)cc1 | 380 | –
N=C(Cc1c(Cl)cccc1Cl)NC(=S)Nc1ccc(Cl)cc1Cl | 347 | –
CC(C(=N)/N=C(\S)Nc1ccc(C#N)cc1)c1c(Cl)cccc1Cl (stereo not given) | 158 | –
N#Cc1ccc(NC(=S)/N=C(/Cc2c(Cl)cccc2Cl)Nc2ccccc2)cc1 | 1320 | –
N#Cc1ccc(NC(=S)NC(=N)Cc2ccccc2Cl)cc1 | 14 | –
N#Cc1ccc(NC(=S)NC(=N)CCc2c(Cl)cccc2Cl)cc1 | 525 | –
N=C(Cc1c(Cl)cccc1Cl)NC(=S)NCCc1ccc(Cl)cc1 | 1620 | –
N#Cc1ccccc1NC(=S)NC(=N)Cc1c(Cl)cccc1Cl | 631000 | –
NC(=O)C(/N=C(\S)Nc1ccc(Cl)cc1)c1c(Cl)cccc1Cl (stereo not given) | 160 | –
N#Cc1cccc(NC(=S)NC(=N)Cc2c(Cl)cccc2Cl)c1 | 126 | –
NC(=O)C(/N=C(\S)Nc1ccccc1Cl)c1c(Cl)cccc1Cl (stereo not given) | > 60000 | –
NC(=O)C(Nc1ccccc1Cl)c1c(Cl)cccc1Cl (stereo not given) | 400 | –
N#Cc1ccc(NC(=S)NC(=N)Cc2c(Cl)ccc(Cl)c2Cl)cc1 | 5 | –
N#Cc1ccc(NC(=S)NC(=N)Cc2ccc(Cl)cc2)cc1 | 148 | –
NC(=O)C(/N=C(\S)Nc1cccc(Cl)c1)c1c(Cl)cccc1Cl (stereo not given) | 5200 | –
CC(C)Nc1cccnc1N1CCN(C(=O)c2cc3cc(NS(C)(=O)=O)ccc3[nH]2)CC1 [DELAVIRDINE MESYLATE] | – | IC50 [2]: 63 nM; IC50 [3]: 1260 nM; IC50 [4]: 63 nM; IC50 [5]: 2000 nM; IC50 [6]: 1590 nM; IC50 [7]: 158 nM; IC50 [8]: 2510 nM; IC50 [9]: 2510 nM
CC(=O)c1ccc(C)cc1NC(C(N)=O)c1c(Cl)cccc1Cl (stereo not given) [LOVIRIDE] | – | IC50 [2]: 50 nM; IC50 [3]: 50100 nM; IC50 [4]: 2510 nM; IC50 [5]: 15800 nM; IC50 [6]: 1000 nM; IC50 [7]: 63 nM; IC50 [8]: 1260 nM; IC50 [9]: 50 nM
